Data from patent publication US20240148831A1, “COMBINATION TREATMENTS FOR CHOLESTASIS” (THE BOARD OF REGENTS OF THE UNIVERSITY OF OKLAHOMA, priority 2022, published 2024).

What was measured:
Assay type in all cases: in vivo
Cyp2c70 KO mice [1] = test: Gut barrier integrity (colon H&E and ZO-1 immunohistochemistry) in Cyp2c70 KO mice; details: 4 weeks
From the text: (§1) The Cyp2c70 KO mice with Exon 4 deletion were generated by CRISPR/Cas-mediated genome engineering. Cas9 and gRNA (gRNA1 matching reverse strand of the Cyp2c70 gene: […] (SEQ ID NO:1); gRNA2 matching forward strand of the Cyp2c70 gene: […] (SEQ ID NO:2)) were co-injected into fertilized eggs of C57BL/6J mice. One F0 male founder mouse was identified by PCR followed by sequencing analysis to confirm deletion of an 888 bp genome region containing the entire Exon 4. This F0 founder was bred to a WT C57BL/6J mouse to obtain 3 F1 Cyp2c70+/−females confirming germline transmission. Further breeding of the F1 females with WT C57BL/6J mice (the Jackson Lab, Bar Harbor, ME) yielded WT mice and Cyp2c70+/−mice. Subsequent breeding of the Cyp2c70+/−offspring yielded WT mice and Cyp2c70−/− mice (Cyp2c70 KO). The Cyp2c70 KO mice were then bred via KO×KO breeding scheme. The WT littermates were used to generate WT mice via WT×WT breeding scheme. […] Mice were housed in micro-isolator cages with Biofresh performance bedding (Pelleted cellulose) under 7 AM-7 PM light cycle and 7 PM-7 AM dark cycle. GSK was mixed with chow diet to achieve an estimated 5 mg/kg/day intake based on 5 g/day food intake by a 25 g mouse. AAV-Null or AAV-FGF15 was injected via tail vein at a dose of 1×10^11 GC/mouse. Mice were euthanized following a 6 h fast from 9 am to 3 pm. Animals received humane care according to the criteria outlined in the “Guide for the Care and Use of Laboratory Animals.” All animal protocols were approved by the Institutional Animal Care and Use Committee of the University of Oklahoma Health Sciences Center.
Liver tissues and colon tissues were fixed in 4% paraformaldehyde and paraffin embedded. Hematoxylin and Eosin (H&E) staining was performed with an automated stainer. Sirius Red staining was performed with Direct Red 80 solution (Sigma #365548, St. Louis, MO). […]

Cyp2c70 KO mice [2] = test: Fecal bile acid composition and concentration by LC-MS in Cyp2c70 KO mice; details: 4 weeks
From the text: as §1
(§2) Bile acids were extracted from liver, whole gallbladder bile, whole small intestine with content, and dried feces in 90% ethanol. To collect fecal sample, an individual mouse was placed in a jar briefly and fresh feces were collected. Total bile acid amount was measured by a bile acid assay kit. Bile acid pool was calculated as the total bile acids in liver, gallbladder and small intestine. Bile acid composition in the gallbladder bile and the pooled fecal extracts was analyzed on a Thermo Scientific UltiMate 3000 UHPLC with a Waters Cortecs C18 column and a TSQ Quantis triple quadrupole mass spectrometer. Standard curves for bile acids and internal standard glycine-CDCA-d4 were generated with purified compounds and relative area under the curve (AUC) was calculated. To measure T-CDCA-d4 metabolism in fecal slurry mixtures, pooled fresh fecal sample from each group was resuspended in a reaction buffer consisting of 10% PBS (pH=7.4) and 90% 3 mM sodium acetate (pH=5.2) to a final suspension of 4 mg fecal sample/ml. T-CDCA-d4 was added to a final concentration of 20 ug/ml and the mixture was incubated at 37° C. for 6 h. An equal amount of methanol was added and the mixture was incubated on ice for 1 h to precipitate protein. After centrifugation, an aliquot of the supernatant was vacuum dried and resuspended in injection buffer (0.1% formic acid, 30% acetonitrile, 70% HPLC water), which was used for LC-MS measurement of bile acids as described above.

Cyp2c70 KO mice [3] = test: Bile acid metabolism (fecal total bile acids, bile acid pool, gallbladder bile acid composition, liver CYP7A1/CYP8B1 mRNA) in Cyp2c70 KO mice
From the text: as §1, §2
Total liver RNA was purified with Trizol (Sigma-Aldrich, St. Louis, MO). Reverse transcription was performed by using Oligo dT primer and SuperScript III reverse transcriptase (ThermoFisher Scientific, Grand Island, NY). Real-time PCR was performed on a Bio-Rad CFX384 Real-time PCR system with iQ SYBR Green Supermix (Bio-Rad, Hercules, CA). 18S was measured and used for normalization. The comparative CT (Ct) method was used to determine the relative mRNA expression with the control group arbitrarily set as “1”.

Cyp2c70 KO mice [4] = test: Liver histopathology, serum transaminases and liver mRNA markers after 4 weeks of treatment in Cyp2c70 KO mice; details: female Cyp2c70 KO mice
From the text: as §1
Liver tissues and colon tissues were fixed in 4% paraformaldehyde and paraffin embedded. Hematoxylin and Eosin (H&E) staining was performed with an automated stainer. Sirius Red staining was performed with Direct Red 80 solution (Sigma #365548, St. Louis, MO). For immunohistochemistry, paraffin embedded tissues were deparaffinized and rehydrated, and after antigen retrieval, […] sections were incubated first with blocking buffer (5% BSA and 5% goat serum in PBS) for 1 h and then blocking buffer containing primary antibodies overnight at 4° C. After washing with PBS, the sections were incubated with secondary antibodies in SignalStain® Boost IHC Detection Reagent (Cell Signaling, #8114, Danvers, MA) for 1 h. Signal was then visualized using a DAB kit (Cell Signaling, #11724, Danvers, MA). The sections were counterstained with Hematoxylin. Images are acquired by using an EVOS M5000 imaging system (ThermoFisher Scientific, Grand Island, NY).
Total liver RNA was purified with Trizol (Sigma-Aldrich, St. Louis, MO). […] 18S was measured and used for normalization. […]

[5] = female Cyp2c70 KO mice, vs untreated mice

CCCC[C@]1(CC)CS(=O)(=O)c2cc(CNC(CC(=O)O)CC(=O)O)c(OC)cc2[C@@H](c2ccccc2)N1 [GSK, GSK2330672]
colon ZO-1 level (immunohistochemistry) (Cyp2c70 KO mice [1]; female Cyp2c70 KO mice): failed to restore | colon ZO-1 level (immunohistochemistry) (Cyp2c70 KO mice [1]; male Cyp2c70 KO mice): failed to restore | histological features of the colon epithelium (H&E) (Cyp2c70 KO mice [1]; male and female Cyp2c70 KO mice): did not reveal abnormal histological features | fecal DCA abundance (relative) (Cyp2c70 KO mice [2]; female Cyp2c70 KO mice): increased | fecal LCA abundance (relative) (Cyp2c70 KO mice [2]; female Cyp2c70 KO mice, untreated ~90% LCA): slightly reduced | fecal DCA amount (absolute) (Cyp2c70 KO mice [2]; [5]): higher | fecal LCA amount (absolute) (Cyp2c70 KO mice [2]; [5]): higher | fecal DCA amount (Cyp2c70 KO mice [2]; male Cyp2c70 KO mice): increased | fecal LCA amount (Cyp2c70 KO mice [2]; male Cyp2c70 KO mice): did not increase | hepatic CYP8B1 expression (Cyp2c70 KO mice [3]; female Cyp2c70 KO mice, 4 weeks): markedly increased | gallbladder T-CDCA abundance (Cyp2c70 KO mice [3]; female Cyp2c70 KO mice, 4 weeks, untreated printed as −70%): ~40% | gallbladder T-DCA abundance (Cyp2c70 KO mice [3]; female Cyp2c70 KO mice, 4 weeks, untreated ~1%): ~30% | gallbladder T-CA abundance (Cyp2c70 KO mice [3]; female Cyp2c70 KO mice, 4 weeks, vs untreated): without affecting | increase of fecal bile acid loss (excretion) (Cyp2c70 KO mice [3]; female Cyp2c70 KO mice, after 2 weeks treatment): ~2 fold | reduction of total bile acid pool (Cyp2c70 KO mice [3]; female Cyp2c70 KO mice, after 4 weeks of treatment): ~40% | gallbladder T-DCA abundance (Cyp2c70 KO mice [3]; male Cyp2c70 KO mice, 4 weeks): increasing | liver CYP7A1 mRNA expression (Cyp2c70 KO mice [3]; male Cyp2c70 KO mice, 4 weeks): induction | liver CYP8B1 mRNA expression (Cyp2c70 KO mice [3]; male Cyp2c70 KO mice, 4 weeks): induction | fecal bile acid excretion (Cyp2c70 KO mice [3]; male Cyp2c70 KO mice, after 2 weeks of treatment): increased | reduction of bile acid pool size (Cyp2c70 KO mice [3]; male Cyp2c70 KO mice, after 4 weeks of treatment): ~60% | reduction of liver p21 mRNA (Cyp2c70 KO mice [4]; 4 weeks of treatment): did not affect | serum transaminases (ALT, AST) (Cyp2c70 KO mice [4]; 4 weeks of treatment): not altered | portal inflammation (inflammatory infiltration) and ductular reaction (Cyp2c70 KO mice [4]; 4 weeks of treatment from 12 weeks of age, F4/80, CK19, H&E stain): largely ineffective | portal fibrosis (Cyp2c70 KO mice [4]; 4 weeks of treatment, Sirius Red stain): largely ineffective
